Test results taken from patent publication US10722516B2, “Use of landiolol hydrochloride in the long-term treatment of tachyarrhythmias” (AOP Orphan Pharmaceuticals AG, priority 2013, dated 2020).
Entries after “also recorded” stand apart in the source; their conditions may differ. Structures can show the parent of a compound that is named as a salt.

Assays:
healthy volunteers = experiment: 24 h long-term infusion study, AOP LDLL600 against esmolol: heart rate; type: in vivo, human; settings: for heart rate: Table 1
Protocol: A single centre prospective, randomized, double blind, crossover, pharmacokinetic, safety and tolerability study to compare long-term infusion administration of AOP LDLL600 against esmolol in healthy volunteers was performed.
Landiolol hydrochloride lyophilized (LDLL600) comprises 600 mg landiolol hydrochloride, 600 mg mannitol, pH 6.5. The primary packing of LDLL600 is 50 ml vial, the reconstitution volume is 50 ml and the final product concentration is 12 mg/mL landiolol HCl.
12 subjects were administered AOP LDLL600 or Esmolol (Brevibloc, 2500 mg/250 ml) in 1:1 ratio in double-blind, randomized, cross-over setting. PK, systemic cardiovascular and local tolerability and safety of the 24 h-long term infusions of three dose levels of both IMPs during each treatment period were assessed.
Landiolol was infused over 24 h in a dose of 10 μg/KG/min (2 hrs), followed by 20 μg/KG/min (2 hrs), followed by 40 μg/KG/min for 20 hrs.
Dosing algorithm was body weight divided by 20, 10 and 5 in ml/h giving 10, 20 and 40 μg/KG/min at a concentration of 12 mg/ml. No severe adverse drug reactions, mild local reactions, 1 severe local reaction (Esmolol High Dose).
Landiolol was infused over 24 h in a dose of 10, 20 and 40 μg/KG/min, i.e. 10 μg/KG/min landiolol were administered for 2 hrs, followed by 2 hrs administration of 20 μg/KG/min and further followed by 20 hrs administration of 40 μg/KG/min.
Post-infusion follow up measurements were performed immediately after 20 hrs administration study, i.e. 2, 4 min etc. after stop of landiolol administration.

[1] = after discontinuing the drug; cited from earlier work
[2] = LD infusion (landiolol 10, esmolol 50 μg/kg/min), 3 min
[3] = LD infusion (landiolol 10, esmolol 50 μg/kg/min), 4 min
[4] = LD infusion (landiolol 10, esmolol 50 μg/kg/min), 6 min
[5] = LD infusion (landiolol 10, esmolol 50 μg/kg/min), 8 min
[6] = LD infusion (landiolol 10, esmolol 50 μg/kg/min), 12 min
[7] = LD infusion (landiolol 10, esmolol 50 μg/kg/min), 16 min
[8] = LD infusion (landiolol 10, esmolol 50 μg/kg/min), 20 min
[9] = LD infusion (landiolol 10, esmolol 50 μg/kg/min), 30 min
[10] = LD infusion (landiolol 10, esmolol 50 μg/kg/min), 60 min
[11] = LD infusion (landiolol 10, esmolol 50 μg/kg/min), 90 min
[12] = LD infusion (landiolol 10, esmolol 50 μg/kg/min), 2 h
[13] = MD infusion (landiolol 20, esmolol 100 μg/kg/min, after 2 h LD), 2 min
[14] = MD infusion (landiolol 20, esmolol 100 μg/kg/min, after 2 h LD), 3 min
[15] = MD infusion (landiolol 20, esmolol 100 μg/kg/min, after 2 h LD), 4 min
[16] = MD infusion (landiolol 20, esmolol 100 μg/kg/min, after 2 h LD), 6 min
[17] = MD infusion (landiolol 20, esmolol 100 μg/kg/min, after 2 h LD), 8 min
[18] = MD infusion (landiolol 20, esmolol 100 μg/kg/min, after 2 h LD), 16 min
[19] = MD infusion (landiolol 20, esmolol 100 μg/kg/min, after 2 h LD), 20 min
[20] = MD infusion (landiolol 20, esmolol 100 μg/kg/min, after 2 h LD), 30 min
[21] = MD infusion (landiolol 20, esmolol 100 μg/kg/min, after 2 h LD), 60 min
[22] = MD infusion (landiolol 20, esmolol 100 μg/kg/min, after 2 h LD), 90 min
[23] = MD infusion (landiolol 20, esmolol 100 μg/kg/min, after 2 h LD), 2 h

COC(=O)CCc1ccc(OCC(O)CNC(C)C)cc1 (stereo not drawn) [Esmolol, Esmolol hydrochloride]
change of heart rate from predose, Mean (SD) (healthy volunteers; [2]): −1.9 (5.34) beats per minute
heart rate, Mean (SD) (healthy volunteers; [2]): 65.7 (4.91) beats per minute
change of heart rate from predose, Mean (SD) (healthy volunteers; [3]): −2.1 (7.64) beats per minute
heart rate, Mean (SD) (healthy volunteers; [3]): 65.6 (6.44) beats per minute
change of heart rate from predose, Mean (SD) (healthy volunteers; [4]): −1.6 (5.96) beats per minute
heart rate, Mean (SD) (healthy volunteers; [4]): 66.0 (4.52) beats per minute
change of heart rate from predose, Mean (SD) (healthy volunteers; [5]): −2.1 (7.05) beats per minute
heart rate, Mean (SD) (healthy volunteers; [5]): 65.5 (4.35) beats per minute
change of heart rate from predose, Mean (SD) (healthy volunteers; [6]): −2.4 (6.77) beats per minute
heart rate, Mean (SD) (healthy volunteers; [6]): 65.2 (4.74) beats per minute
change of heart rate from predose, Mean (SD) (healthy volunteers; [7]): −2.3 (7.58) beats per minute
heart rate, Mean (SD) (healthy volunteers; [7]): 65.4 (5.51) beats per minute
change of heart rate from predose, Mean (SD) (healthy volunteers; [8]): −2.0 (9.49) beats per minute
heart rate, Mean (SD) (healthy volunteers; [8]): 65.6 (7.07) beats per minute
change of heart rate from predose, Mean (SD) (healthy volunteers; [9]): −5.1 (6.29) beats per minute
heart rate, Mean (SD) (healthy volunteers; [9]): 62.6 (5.05) beats per minute
change of heart rate from predose, Mean (SD) (healthy volunteers; [10]): −4.1 (8.00) beats per minute
heart rate, Mean (SD) (healthy volunteers; [10]): 63.6 (4.67) beats per minute
change of heart rate from predose, Mean (SD) (healthy volunteers; [11]): −3.5 (6.55) beats per minute
heart rate, Mean (SD) (healthy volunteers; [11]): 64.1 (4.99) beats per minute
change of heart rate from predose, Mean (SD) (healthy volunteers; [12]): −3.9 (7.12) beats per minute
heart rate, Mean (SD) (healthy volunteers; [12]): 63.8 (4.89) beats per minute
change of heart rate from predose, Mean (SD) (healthy volunteers; MD Predose (end of 2 h LD)): −3.9 (7.12) beats per minute
heart rate, Mean (SD) (healthy volunteers; MD Predose (end of 2 h LD)): 63.8 (4.89) beats per minute
change of heart rate from predose, Mean (SD) (healthy volunteers; [13]): −4.3 (10.36) beats per minute
heart rate, Mean (SD) (healthy volunteers; [13]): 63.4 (7.88) beats per minute
change of heart rate from predose, Mean (SD) (healthy volunteers; [14]): −5.1 (8.40) beats per minute
heart rate, Mean (SD) (healthy volunteers; [14]): 62.6 (5.50) beats per minute
change of heart rate from predose, Mean (SD) (healthy volunteers; [15]): −2.7 (8.96) beats per minute
heart rate, Mean (SD) (healthy volunteers; [15]): 64.9 (9.04) beats per minute
change of heart rate from predose, Mean (SD) (healthy volunteers; [16]): −3.8 (7.45) beats per minute
heart rate, Mean (SD) (healthy volunteers; [16]): 63.9 (5.10) beats per minute
change of heart rate from predose, Mean (SD) (healthy volunteers; [17]): −5.6 (7.54) beats per minute
heart rate, Mean (SD) (healthy volunteers; [17]): 62.1 (4.46) beats per minute
heart rate, Mean (SD) (healthy volunteers; MD infusion (landiolol 20, esmolol 100 μg/kg/min, after 2 h LD), 12 min): 61.8 (5.07) beats per minute
change of heart rate from predose, Mean (SD) (healthy volunteers; [18]): −3.5 (7.14) beats per minute
heart rate, Mean (SD) (healthy volunteers; [18]): 64.1 (5.02) beats per minute
change of heart rate from predose, Mean (SD) (healthy volunteers; [19]): −5.0 (7.34) beats per minute
heart rate, Mean (SD) (healthy volunteers; [19]): 62.6 (4.33) beats per minute
change of heart rate from predose, Mean (SD) (healthy volunteers; [20]): −5.6 (8.20) beats per minute
heart rate, Mean (SD) (healthy volunteers; [20]): 62.1 (5.00) beats per minute
change of heart rate from predose, Mean (SD) (healthy volunteers; [21]): −1.4 (10.41) beats per minute
heart rate, Mean (SD) (healthy volunteers; [21]): 66.2 (5.04) beats per minute
change of heart rate from predose, Mean (SD) (healthy volunteers; [22]): −2.2 (8.59) beats per minute
heart rate, Mean (SD) (healthy volunteers; [22]): 65.4 (6.17) beats per minute
change of heart rate from predose, Mean (SD) (healthy volunteers; [23]): −3.9 (7.75) beats per minute
heart rate, Mean (SD) (healthy volunteers; [23]): 63.7 (4.86) beats per minute
heart rate, Mean (SD) (healthy volunteers; Predose (before first IMP administration)): 67.6 (7.87) beats per minute
heart rate (healthy volunteers; Control (before administration)): 67 beats per minute
heart rate (healthy volunteers; high dose (landiolol 40, esmolol 200 μg/kg/min), time 720 min): 67.9 beats per minute
heart rate (healthy volunteers; high dose (landiolol 40, esmolol 200 μg/kg/min), time 1200 min): 67.9 beats per minute
heart rate (healthy volunteers; low dose (landiolol 10, esmolol 50 μg/kg/min), time 12 min): 65.2 beats per minute
heart rate (healthy volunteers; low dose (landiolol 10, esmolol 50 μg/kg/min), time 16 min): 65.4 beats per minute
heart rate (healthy volunteers; low dose (landiolol 10, esmolol 50 μg/kg/min), time 30 min): 62.6 beats per minute
heart rate (healthy volunteers; low dose (landiolol 10, esmolol 50 μg/kg/min), time 60 min): 63.6 beats per minute
heart rate (healthy volunteers; low dose (landiolol 10, esmolol 50 μg/kg/min), time 120 min): 63.8 beats per minute
heart rate (healthy volunteers; medium dose (landiolol 20, esmolol 100 μg/kg/min), time 240 min): 63.7 beats per minute
heart rate (healthy volunteers; time after administration 12 min (end at 1440 min)): 74.7 beats per minute
heart rate (healthy volunteers; time after administration 16 min): 74 beats per minute
heart rate (healthy volunteers; time after administration 30 min): 76.8 beats per minute
heart rate (healthy volunteers; time after administration 60 min): 73.1 beats per minute
heart rate (healthy volunteers; time after administration 120 min): 70.2 beats per minute
overshoot effect on heart rate (healthy volunteers; after termination of long term administration, hydrochloride): the heart rate and blood pressure raise immediately over control values; also recorded: significant tolerance and overshoot effect
additive effect of raising the dose (tolerance state) (healthy volunteers; esmolol MD, HD): does not provide any additive effect
heart rate effect during administration (healthy volunteers; long term administration): relative increase of the heart rate and blood pressure already after 60 minutes of administration
tolerance effect (healthy volunteers; long term administration): significant tolerance and overshoot effect
remark on heart rate response after infusion stop (healthy volunteers; remark column of Table 2, FU time points 20 h 6 min to 21 h): overshoot
remark on heart rate response during infusion (healthy volunteers; remark column of Table 2, time points MD 60 min to HD 20 h (end)): Tolerance state
time to resolution of hypotension symptoms [1]: ≤ 30 min
